Reference: paper PMC4646457 (PLoS ONE, 2015)
pIC50: −log10 of the molar value. Like-named read-outs stand apart in the source and are kept apart here.

Columns and labels:
[1] = set-up: method as in EGF10027 protocol, CIB RM2000/00481/06; details: oral, male beagle dogs; ref EGF10027 protocol, CIB RM2000/00481/06; cited from earlier work
ErbB1 tyrosine kinase = details: read-out: IC50, ErbB1 tyrosine kinase; in vitro kinase assay; ref EGF10027 protocol, CIB RM2000/00481/06; cited from earlier work
[2] = ref EGF10027 protocol, CIB RM2000/00481/06, cited from earlier work
CYP3A = tested on: CYP3A; set-up: method as in EGF10027 protocol, CIB RM2000/00481/06; details: pregnane X receptor-screening assay; ref EGF10027 protocol, CIB RM2000/00481/06; cited from earlier work
HER2 [3] = target: HER2 (Homo sapiens, UniProt P04626); assay: Quantitative IHC of phosphorylated HER2 in patient tumor (EGF10027); assay type: in vivo; details: for p-HER2 post-treatment OD: plasma […]
Chain of HER2 (Homo sapiens, UniProt P04626) (P04626 23-1255): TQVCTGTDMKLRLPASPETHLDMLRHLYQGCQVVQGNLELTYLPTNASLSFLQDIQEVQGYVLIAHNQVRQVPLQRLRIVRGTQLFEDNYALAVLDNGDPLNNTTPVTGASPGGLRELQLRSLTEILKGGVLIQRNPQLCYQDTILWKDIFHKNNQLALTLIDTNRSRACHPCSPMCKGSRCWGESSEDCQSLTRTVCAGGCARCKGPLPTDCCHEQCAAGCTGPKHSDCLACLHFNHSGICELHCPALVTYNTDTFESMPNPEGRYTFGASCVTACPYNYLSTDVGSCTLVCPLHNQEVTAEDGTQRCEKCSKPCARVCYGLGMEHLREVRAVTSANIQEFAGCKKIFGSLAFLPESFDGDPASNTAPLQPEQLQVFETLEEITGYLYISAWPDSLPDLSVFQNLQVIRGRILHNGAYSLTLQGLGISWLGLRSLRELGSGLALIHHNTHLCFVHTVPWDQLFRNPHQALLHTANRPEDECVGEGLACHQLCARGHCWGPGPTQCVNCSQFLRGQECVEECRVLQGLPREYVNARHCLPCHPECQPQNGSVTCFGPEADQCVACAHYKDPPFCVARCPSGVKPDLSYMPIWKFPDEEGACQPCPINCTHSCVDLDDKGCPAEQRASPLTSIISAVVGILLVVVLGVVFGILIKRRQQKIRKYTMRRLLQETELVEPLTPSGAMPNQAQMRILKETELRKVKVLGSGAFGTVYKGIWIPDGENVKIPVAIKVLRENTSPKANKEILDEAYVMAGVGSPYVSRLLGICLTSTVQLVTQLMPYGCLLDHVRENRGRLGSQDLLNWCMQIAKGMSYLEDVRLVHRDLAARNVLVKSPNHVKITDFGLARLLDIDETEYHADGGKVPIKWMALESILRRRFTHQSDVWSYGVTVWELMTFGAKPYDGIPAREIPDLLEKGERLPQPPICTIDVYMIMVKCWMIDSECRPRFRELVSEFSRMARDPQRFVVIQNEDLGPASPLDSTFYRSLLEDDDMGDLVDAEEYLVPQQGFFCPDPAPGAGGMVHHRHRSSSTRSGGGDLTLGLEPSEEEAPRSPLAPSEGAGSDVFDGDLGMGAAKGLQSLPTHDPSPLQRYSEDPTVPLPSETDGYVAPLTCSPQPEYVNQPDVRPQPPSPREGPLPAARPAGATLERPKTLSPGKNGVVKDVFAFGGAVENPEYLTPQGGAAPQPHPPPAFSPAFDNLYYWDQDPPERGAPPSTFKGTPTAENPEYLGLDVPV

[4] = set-up: method as in RM2005/00018/00 (Study EGF20008); details: single agent, heavily pre-treated population; ref RM2005/00018/00 (Study EGF20008); cited from earlier work
human CYP450 enzymes = details: also CYP3A5, lesser extent CYP2C19; ref EGF10027 protocol, CIB RM2000/00481/06; cited from earlier work
[5] = set-up: method as in EGF10027 protocol, CIB RM2000/00481/06; details: mice, rats and dogs; ref EGF10027 protocol, CIB RM2000/00481/06; cited from earlier work
EGFR = details: read-out: IC50 for EGFR; stated as target binding affinity, ref not given; cited from earlier work
[6] = cited from earlier work
[7] = set-up: method as in EGF10027 protocol, CIB RM2000/00481/06; details: ref EGF10027 protocol, CIB RM2000/00481/06, cited from earlier work
plasma proteins = tested on: plasma proteins; set-up: method as in EGF10027 protocol, CIB RM2000/00481/06; details: mouse, rat, dog, rabbit and human plasma, 1 to 100 µM; ref EGF10027 protocol, CIB RM2000/00481/06; cited from earlier work
[8] = set-up: method as in study EGF10002; details: ref study EGF10002, cited from earlier work
HER2 [9] = details: read-out: IC50 for HER2; stated as target binding affinity, ref not given; cited from earlier work
[10] = EGF10027 steady-state lapatinib concentrations in patient plasma and tumor; assay type: in vivo, human; details: for concentration at 12 h / concentration at 24 h: female, human, oral; for concentration at 12 h: 500 mg
CYP3A4 = tested on: CYP3A4; set-up: method as in EGF10027 protocol, CIB RM2000/00481/06; details: ref EGF10027 protocol, CIB RM2000/00481/06; cited from earlier work
[11] = rats; ref EGF10027 protocol, CIB RM2000/00481/06; cited from earlier work
[12] = tested on: isolated canine cardiac Purkinje fibers; set-up: method as in EGF10027 protocol, CIB RM2000/00481/06; details: ref EGF10027 protocol, CIB RM2000/00481/06; cited from earlier work

CS(=O)(=O)CCNCc1ccc(-c2ccc3ncnc(Nc4ccc(OCc5cccc(F)c5)c(Cl)c4)c3c2)o1 [lapatinib]
overall recovery of radioactivity (nearly quantitative in feces) [1]: 89.9%
pIC50 (ErbB1 tyrosine kinase): 8.00
NOAEL ([2]; female rats): 20 mg/kg/day
NOAEL ([2]; male rats): 60 mg/kg/day
generally well tolerated dose ([2]; rats, up to 13 weeks): ≤ 60 mg/kg/day
CYP3A induction (CYP3A): no abil it y to induce CYP3A
p-HER2 post-treatment OD, mean (HER2 [3]; mean of listed subjects): 9.00 OD
HER2 phosphorylation in tumor (HER2 [3]; one patient with ABCB1 SNP C3435T, plasma 1 μM, tumor 9 μM): complete inhibition
p-HER2 post-treatment OD (HER2 [3]; subject 5, tumor 25.60 µM): 10 OD
p-HER2 post-treatment OD (HER2 [3]; subject 1405, tumor 12.76 µM): 17 OD
clinical benefit response rate [4]: 6%
metabolizing CYP enzymes (human CYP450 enzymes): metabolized predominantl y by CYP3A4
urinary excretion of the oral dose [5]: < 1%
Cmin ([6]; previous clinical studies, 1500 mg QD): 1350 nM
plasma half-life ([6]; ref EGF10027 protocol, original text): ~14 h
dose recovered in bile ([7]; bile duct cannulated male rats, within 5 hours after dosing): 32%
overall recovery of radioactivity (nearly quantitative in feces) ([7]; oral, male Wistar Han rats): 90.0%
plasma protein binding (plasma proteins): > 99%
accumulation with once daily dosing ([8]; 100 and 175 mg doses): ~50%
half-life ([8]; Day 1): 7 h
pIC50 (HER2 [9]): 7.60
concentration at 12 h ([10]; plasma, patients, median (range), 500 mg BID (n = 5), steady state, read-out: Plasma Cmin): 2750 nM
concentration at 24 h ([10]; plasma, 1000 mg, patients, median (range), 1000 mg QD (n = 5), steady state, read-out: Plasma Cmin): 1540 nM
concentration at 24 h ([10]; plasma, 1500 mg, patients, median (range), 1500 mg QD (n = 3), steady state, read-out: Plasma Cmin): 390 nM
concentration at 12 h ([10]; tumor, patients, median (range), 500 mg BID (n = 5), steady state, read-out: Tumor Cmin): 13000 nM
concentration at 24 h ([10]; tumor, 1000 mg, patients, median (range), 1000 mg QD (n = 5), steady state, read-out: Tumor Cmin): 2290 nM
concentration at 24 h ([10]; tumor, 1500 mg, patients, median (range), 1500 mg QD (n = 3), steady state, read-out: Tumor Cmin): 2270 nM
Tumor Cmin ([10]; patients, median (range), 500 mg BID (n = 5), steady state): 12.8 (7.9–31.1) μM
Lap conc, tumor ([10]; subject 5): 25.60 µM
Lap conc, tumor ([10]; subject 124): 56.02 µM
Lap conc, tumor ([10]; subject 801): 1.98 µM
Lap conc, tumor ([10]; subject 803): 2.08 µM
Lap conc, tumor ([10]; subject 804): 7.90 µM
Lap conc, tumor ([10]; subject 1401): 1.02 µM
Lap conc, tumor ([10]; subject 1403): 9.08 µM
Lap conc, tumor ([10]; subject 1405): 12.76 µM
CYP3A4 inhibition (CYP3A4): inhibitory pot ential towards CYP3A4
single intravenous dose with no deaths [11]: ≤ 21 mg/kg
single oral dose with no deaths [11]: up to 2,000 mg/kg
